{"source": "patent US11753447B2", "about": "“Cyclic peptides, methods of synthesis, and methods of treatment” (priority 2020, dated 2023)", "key": {"[1]": {"tested_on": "SARS-CoV-2", "conditions": "cell-based studies; cited from earlier work"}, "[2]": {"target": "T1, SARS-CoV-2 M^pro (Severe acute respiratory syndrome coronavirus 2, UniProt P0DTD1)", "T1 construct": "purchased Life Sensors", "test": "biochemical", "conditions": "0.1 μM M^pro, 50 μM fluorogenic substrate, 30 min pre-incubation, 37° C., non-linear regression of initial rates; read-out: IC50 against M^pro"}, "[3]": {"tested_on": "HEK-293 cells", "conditions": "72 hours"}, "[4]": {"target": "T1, SARS-CoV-2 M^pro", "test": "LC/MS analysis of enzyme inhibition assay well solution for cleavage of UCI-1 by M^pro", "type": "biochemical", "conditions": "187.5 μM UCI-1 well solution after 4 hours, compared with peptide-1c spike"}}, "note": "Numbered stars: 1 amine (or outer) side, 2 acyl side, 3 side chain; on linkers, the order of the positions; unused ones are H or OH. Square brackets hold non-standard residues; d marks the D form. Peptide text beside a SMILES is read from it. X1 = O=C(Cc1ccc(CCN[*:1])cc1)[*:2]", "data": [{"smiles": "O=C[C@H](C[C@@H]1CCNC1=O)NC(=O)[C@H](CC1CCCCC1)NC(=O)c1cc2ccccc2[nH]1", "note": "[11a]", "values": [{"measurement": "SARS-CoV-2 replication", "setting": "[1]", "result": "block SARS-CoV-2 replication"}]}, {"smiles": "CC(C)(C)OC(=O)Nc1cccn([C@@H](CC2CC2)C(=O)N[C@@H](C[C@@H]2CCNC2=O)C(=O)C(=O)NCc2ccccc2)c1=O", "note": "[13b]", "values": [{"measurement": "SARS-CoV-2 replication", "setting": "[1]", "result": "block SARS-CoV-2 replication"}]}, {"smiles": "O=C[C@H](C[C@@H]1CCNC1=O)NC(=O)[C@H](Cc1cccc(F)c1)NC(=O)c1cc2ccccc2[nH]1", "note": "[11b]", "values": [{"measurement": "SARS-CoV-2 replication", "setting": "[1]", "result": "block SARS-CoV-2 replication"}]}, {"smiles": "NCCCC[C@@H]1NC(=O)[C@H](CO)NC(=O)[C@H](CCC(N)=O)NC(=O)[C@H](Cc2ccccc2)NC(=O)Cc2ccc(cc2)CCNC1=O", "note": "[UCI-1] (cyclo(FQSK[X1]))", "values": [{"measurement": "IC50", "setting": "[2]", "result": "~160", "unit": "µM"}, {"measurement": "cytotoxicity", "setting": "[3]; concentrations up to 256 μM, HEK-293", "result": "not cytotoxic"}, {"measurement": "LDH release from HEK-293 cells", "setting": "[3]; highest concentration evaluated (256 μM)", "result": "little or no LDH release"}, {"measurement": "cleavage by M^pro", "setting": "[4]", "result": "not appreciably cleaved"}]}, {"smiles": "Cc1cc(C(=O)NC(C)C(=O)NC(C(=O)NC(CC(C)C)C(=O)NC(C=CC(=O)OCc2ccccc2)CC2CCNC2=O)C(C)C)no1", "note": "(centres unmarked) [N3]", "values": [{"measurement": "SARS-CoV-2 replication", "setting": "[1]", "result": "block SARS-CoV-2 replication"}]}]}
